These are literature values, as cited in patent US7799756B2, “Processes for stereoselective synthesis of trans ISATX247” (Albany Molecular Research, Inc., priority 2004, dated 2010).

For data set [1] the following is noted: compared to the corresponding cis-isomer.
For data set [2] the following is noted: compared to the corresponding cis-isomer. The source holds these as a separate data set.
The conditions of data set [3]: over natural cyclosporins and presently known cyclosporin derivatives.
The conditions of data set [4]: phase IIa, kidney transplantation, mixture of cis and trans isomers.

As to trans ISATX247, in data set [1], the therapeutic index entry is reported as “improved therapeutic index”. For the same compound, the activity on immunosuppression entry in data set [2] was “better activity on immunosuppression”.
For `C=CC=CC[C@@H](C)[C@@H](O)C1C(=O)N[C@H](CC)C(=O)N(C)CC(=O)N(C)[C@@H](CC(C)C)C(=O)N[C@H](C(C)C)C(=O)N(C)[C@H](CC(C)C)C(=O)N[C@H](C)C(=O)N[C@@H](C)C(=O)N(C)[C@H](CC(C)C)C(=O)N(C)[C@H](CC(C)C)C(=O)N(C)[C@H](C(C)C)C(=O)N1C` (stereo partly drawn) [ISATX247, cyclo {(E,Z)-(2S,3R,4R)-3-hydoxy-4-methyl-2-(methylamino)-6,8-nonadienoyl-L-2-aminobutyryl-N-methyl-glycyl-N -methyl-L-leucyl-L-valyl-N-methyl-L-leucyl-L-alanyl-D-alanyl-N-methyl-L-leucyl-N-methyl-L-leucyl-N-methyl-L-valyl}], the potency result in data set [3] is recorded as “enhanced potency”. In addition, in data set [4], the clinical trial outcome is reported as “positive results”.
